Test results as given in EP4711365A1 (Shanghai Hansoh Biomedical Co., Ltd., priority 2023, dated 2024).

Tests used:
[1] = molecular target: T1, human IL-17RA and IL-17A proteins (Homo sapiens, UniProt Q16552); experiment: Competitive ELISA: blocking of binding between human IL-17RA and IL-17A; settings: coated IL-17A, IL-17RA 5 nM
T1 sequence (Q16552 24-155): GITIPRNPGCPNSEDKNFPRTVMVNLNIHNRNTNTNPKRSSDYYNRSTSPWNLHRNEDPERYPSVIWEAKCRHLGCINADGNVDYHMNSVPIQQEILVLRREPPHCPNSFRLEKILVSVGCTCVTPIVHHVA
Protocol: Test example 1 Assay for competitive binding effect between compounds of the present invention and human IL-17 receptor for ligand
1. Experimental objective: to quantitatively determine the blocking effect of the compound on the binding between human IL-17RA and IL-17A proteins using competitive ELISA under in vitro conditions. 2. Experimental instruments and reagents: 2.1 Instruments:
2.2 Reagents: 3. Experimental method: IL-17A at 0.0625 µg/mL was coated in a 96-well plate at 4°C overnight at 100 µL per well. The plate was washed with PBST (300 µL/well x 4), and then blocked at 24°C for 2 h by adding 300 µL of ELISA Blocker blocking buffer to each well. The plate was further washed under the same conditions. 80 µL of PBS solution containing 1% BSA and 10 µL of 10× test compound solution were added to each well and mixed uniformly, and then the mixture was incubated at room temperature for 1 hour. After that, 10 µL of IL-17RA solution was added to a final concentration of 5 nM and mixed uniformly, and then the mixture was incubated at 24°C for 1 h. The corresponding concentration and volume of DMSO solution without compounds was added to positive control wells, and 1% BSA solution without IL-17RA was added to negative control wells.
After the plate was washed four times, 100 µL of the anti-Fc tag HRP-conjugated antibody was added, and the mixture was incubated at 37°C for 1 h. After the plate was washed four times, 100 µL of TMB substrate was added to each well, and the mixture was incubated at 37°C in the dark. After colour development was completed, the reaction was terminated by adding 100 µL of stop solution to each well, and the absorbance was measured at wavelengths of 450 nm and 570 nm using a microplate reader.
• 1) Inhibition rate (%): The original data (OD450-OD570) was calculated according to the following formula to obtain the inhibition rate. Inhibition rate% = [(average value of positive control wells - value of sample wells)/(average value of positive control wells - average value of negative control wells)] × 100, where the positive control wells are wells without compounds, and the negative control wells are wells without IL-17RA protein solution. • 2) Curve fitting: Log(inhibitor) vs. response -- Variable slope (four parameters) in GraphPad Prism 8 was used for fitting equation analysis of the compound concentration and the corresponding inhibition rate, and the curve was fitted to obtain the IC50 value of the compound. The fitting calculation equation was Y = Bottom + (Top - Bottom) / (1 + 10^((LogIC50 - X) * HillSlope)).

[2] = test system: Groα secretion by HT-29 cells; experiment: Inhibition of Groα secretion by HT-29 cells stimulated with IL-17A (ELISA); format: cell-based, Human; settings: Homo sapiens, IL-17A 30 ng/ml, Groα in supernatant
Protocol: Test example 2 Assay for inhibitory effect of compounds of the present invention against Groα secretion by HT-29 cells
Experimental objective: to measure the inhibitory effect of the compounds against Groα secretion by HT-29 cells, thereby evaluating the inhibition of the compounds on IL-17A pathway.
Experimental method: A cell suspension at 50,000 cells/ml was prepared, and 200 µl of the cell suspension was added to each well of a 96-well plate, i.e., 10,000 cells/well. The plate was cultured overnight. In the 96-well V-bottom plate, 5 mM compound solution was serially diluted 3-fold using DMSO, and the compound from each well was diluted 100-fold using a complete culture medium. IL-17A protein (R&D, #BT7955-025/CF) with a stock concentration of 100 µg/ml was diluted 333.33-fold using a complete culture medium. The compound and IL-17A were mixed at a volume ratio of 1:1 and incubated at 37°C for 30 minutes. 50 µl of a mixture of the compound and IL-17A was added to cell wells, and the final concentration of IL-17A protein was 30 ng/ml.
The mixture was incubated in a 37°C, 5% CO2 cell culture incubator for 48 hours. The concentration of Groα in the supernatant was determined by ELISA method using Human Groα Valukin Elisa kit (Biotechne, # VAL139), and the absorbance intensity at 450 nm was measured using a microplate reader (PE, EnVision2105). Data were analysed using GraphPad Prism 8.3.0.
Experimental data processing method: Data were analysed using GraphPad Prism 8.3.0.
Inhibition rate% = [(average value of positive control wells - value of sample wells)/(average value of positive control wells - average value of negative control wells)] × 100%, where the sample wells are wells containing cells plus compounds at different concentration gradients, the positive control wells are wells containing cells plus IL-17A, and the negative control wells are wells containing culture medium plus IL-17A.
Curve fitting: The IC50 value was obtained by curve fitting based on the inhibition rate (%) at each concentration using the log(inhibitor) vs. responseVariable slope (four parameters) in GraphPad Prism 6.0, and the calculation equation was Y = Bottom + (Top-Bottom)/(1+10^((LogIC50-X)*HillSlope)).

[3] = Pharmacokinetic assay in Wistar rats, oral; settings: rat, 30 mg/kg
Protocol: Experimental objective: to study the pharmacokinetic behaviours of the compounds of the present invention in the body (plasma) of Wistar rats as test animals after oral administration at a dose of 30 mg/kg. • 2. Experimental scheme • 2.1 Test drugs: the examples of the present invention, prepared in house. • 2.2 Test animals: Wistar rats (female, 3 rats per group), from Beijing Vital River Laboratory Animal Technology Co., Ltd., with the animal production license no.
Solutol HS15 was melted in a water bath at 50-60°C, and then 50 mL of the melted Solutol HS15 was added to 450 mL of ultrapure water. The mixture was stirred and sonicated to obtain 500 mL of 10% Solutol HS15 solution. The compound was weighed, and according to the total administration volume, 30% PEG solution was first added. The mixture was shaken uniformly and sonicated until a clear solution was obtained. Subsequently, 70% (10% Solutol) in water was added, resulting in a colourless and clear solution with a concentration of 3.0 mg/mL.
2.4 Administration scheme: After overnight fasting, 3 female Wistar rats per group were administered orally (PO) at a dose of 30 mg/kg with an administration volume of 10 mL/kg.
• 1) To 50 uL of plasma sample was added 250 uL of acetonitrile for precipitation, and the mixture was mixed and then centrifuged at 4°C at 4000 rpm for 20 minutes. • 2) The treated supernatant solution was taken and subjected to LC/MS/MS to analyse the concentration of the test compounds. LC/MS/MS analysis instrument: AB Sciex API-4000 Qtrap-Shimadzu Controller-CBM20A.
• Chromatographic column: Waters Xbridge C18 3.5 um 2.1*50 mm • Mobile phase: solution A: 0.1% formic acid in water, and solution B: 0.1% formic acid in acetonitrile • Flow rate: 0.6 mL/min • Elution time: 0-3.5 minutes, with eluents as follows:

Compound | IC50 [1] | IC50 ([2]; 48 hours) | further results
C[C@H]1CN(C[C@H](c2cnc(NC(=O)[C@@H](NC(=O)C3(F)CC3)[C@H]3CC[C@H](C)CC3)s2)N2CC(F)(F)CNC2=O)CCO1 [Example 1013] | 9 nM | 9 nM | 
C[C@H]1CC[C@H]([C@H](NC(=O)C2(F)CC2)C(=O)Nc2ncc([C@@H](CN3CCC(F)CC3)N3CC(F)(F)CNC3=O)s2)CC1 [Example 760] | 7 nM | 5.7 nM | 
C[C@@H]1CN(C[C@H](c2cnc(NC(=O)[C@@H](NC(=O)C3(F)CC3)[C@H]3CC[C@H](C)CC3)s2)N2CC(F)(F)CNC2=O)C[C@@H](C)O1 [Example 726] | 4.8 nM | 1.8 nM | 
C[C@@H]1CN(C[C@H](c2cnc(NC(=O)[C@@H](NC(=O)C(F)(F)C3CC3)[C@H]3CC[C@H](C)CC3)s2)N2CC(F)(F)CNC2=O)C[C@@H](C)O1 [Example 727] | 3.3 nM | 1.2 nM | 
COC1CCN(C[C@H](c2cnc(NC(=O)[C@@H](NC(=O)C3(F)CC3)[C@H]3CC[C@H](C)CC3)s2)N2CC(F)(F)CNC2=O)CC1 [Example 777] | 8 nM | 5.3 nM | 
COCC(c1cnc(NC(=O)C(NC(=O)OC2CC2)C2CCC(C)CC2)s1)N1CC(C(F)(F)F)NC1=O (stereo not shown) [Example 522] | 6.2 nM |  | 
[2H]C1([2H])NC(=O)N([C@H](COC)c2cnc(NC(=O)[C@@H](NC(=O)OC3CC3)[C@H]3CC[C@H](C)CC3)s2)C([2H])([2H])C1(F)F [Example 559] | 4.3 nM |  | AUC(0-t) ([3]; plasma): 12700 ng·h/mL; Cmax ([3]; plasma): 2190 ng/mL; Tmax ([3]; plasma): 2 h; half-life ([3]; plasma): 2.7 h
COC[C@H](c1cnc(NC(=O)[C@@H](NC(=O)C2(F)CC2)[C@H]2CC[C@H](C)CC2)s1)N1CC(F)(F)CNC1=O [Example 592] | 6.4 nM |  | 
C[C@@H]1CN(C[C@H](c2cnc(NC(=O)[C@@H](NC(=O)C3(F)CC3)[C@H]3CC[C@H](C)CC3)s2)N2CC(F)(F)CNC2=O)C[C@H](C)O1 [Example 724] | 6 nM | 4 nM | 
COC[C@H](c1cnc(NC(=O)[C@@H](NC(=O)c2nonc2C)[C@H]2CC[C@H](C)CC2)s1)n1cc(Cl)ccc1=O [Example 569] | 5 nM |  | 
C[C@H]1CC[C@H]([C@H](NC(=O)C2(F)CC2)C(=O)Nc2ncc([C@@H](CN3CCOC4(CC4)C3)N3CC(F)(F)CNC3=O)s2)CC1 [Example 721] | 4 nM |  | 
[2H]C([2H])([2H])O[C@@H]1CCN(C[C@H](c2cnc(NC(=O)[C@@H](NC(=O)C3(F)CC3)[C@H]3CC[C@H](C)CC3)s2)N2CC(F)(F)CNC2=O)C[C@@H]1F [Example 781] | 5 nM | 10 nM | 
CC[C@@H]1CN(C[C@H](c2cnc(NC(=O)[C@@H](NC(=O)C3(F)CC3)[C@H]3CC[C@H](C)CC3)s2)N2CC(F)(F)CNC2=O)CCO1 [Example 704] | 4.9 nM | 6.5 nM | 
C[C@H]1CN(C[C@H](c2cnc(NC(=O)[C@@H](NC(=O)C3(F)CC3)[C@H]3CC[C@H](C)CC3)s2)N2CC(F)(F)CNC2=O)[C@@H](C)CO1 [Example 734] | 2.9 nM | 2 nM | 
CC1(C)COCCN1C[C@H](c1cnc(NC(=O)[C@@H](NC(=O)C2(F)CC2)[C@H]2CC[C@H](C)CC2)s1)N1CC(F)(F)CNC1=O [Example 723] | 5 nM | 4 nM | 
CC1CCC([C@H](NC(=O)C2(F)CC2)C(=O)Nc2ncc(C(CN3CCOCC3)N3CC(F)(F)CNC3=O)s2)CC1 (stereo partly shown) [Example 601] | 4.1 nM | 7.5 nM | 
C[C@H]1CC[C@H]([C@H](NC(=O)C2(F)CC2)C(=O)Nc2ncc([C@@H](CN3CCO[C@@H](CF)C3)N3CC(F)(F)CNC3=O)s2)CC1 [Example 703] | 7.5 nM | 7 nM | 
CCc1nonc1C(=O)N[C@H](C(=O)Nc1ncc([C@@H](C2CCOCC2)n2cc(Cl)ccc2=O)s1)[C@H]1CC[C@H](C)CC1 [Example 532] | 7.9 nM | 7.9 nM | 
CCc1nonc1C(=O)NC(C(=O)Nc1ncc(C(COC)N2CC(C(F)(F)F)NC2=O)s1)C1CCC(C)CC1 (stereo not shown) [Example 521] | 1.3 nM | 2 nM | 
[2H]C([2H])([2H])O[C@H]1CCN(C[C@H](c2cnc(NC(=O)[C@@H](NC(=O)C3(F)CC3)[C@H]3CC[C@H](C)CC3)s2)N2CC(F)(F)CNC2=O)C[C@H]1F [Example 782] | 4 nM | 4 nM | 
CC1(C)CN(C[C@H](c2cnc(NC(=O)[C@@H](NC(=O)C3(F)CC3)[C@H]3CC[C@H](C)CC3)s2)N2CC(F)(F)CNC2=O)CCO1 [Example 718] | 5 nM | 8 nM | 
C[C@@H]1COCCN1C[C@H](c1cnc(NC(=O)[C@@H](NC(=O)C2(F)CC2)[C@H]2CC[C@H](C)CC2)s1)N1CC(F)(F)CNC1=O [Example 1015] | 4 nM | 6 nM | 
[2H]C1([2H])NC(=O)N([C@H](COC)c2cnc(NC(=O)[C@@H](NC(=O)C3(F)CC3)[C@H]3CC[C@H](C)CC3)s2)C([2H])([2H])C1(F)F [Example 688, N-((S)-2-((5-((R)-1-(5,5-difluoro-2-carbonyltetrahydropyrimidin-1(2H)-yl-4,4,6,6-d4)-2-methoxyethyl)thiazol-2-yl)amino)-1-((1r,4S)-4-methylcyclohexyl)-2-carbonylethyl)-1-fluorocyclopropane-1-carboxamide] | 5.1 nM |  | 
C[C@H]1CN(C[C@H](c2cnc(NC(=O)[C@@H](NC(=O)C3(F)CC3)[C@H]3CC[C@H](C)CC3)s2)N2CC(F)(F)CNC2=O)C[C@H](C)O1 [Example 730] | 6.7 nM |  | 
[2H]C([2H])([2H])C([2H])([2H])n1nccc1C(=O)N[C@H](C(=O)Nc1ncc([C@@H](CN2C[C@H](C)O[C@@H](C)C2)N2CC(F)(F)CCC2=O)s1)[C@H]1CC[C@H](C)CC1 [Example 854, N-((S)-2-((5-((R)-1-(5,5-difluoro-2-oxopiperidin-1-yl)-2-((2S,6S)-2,6-dimethylmorpholino)ethyl)thiazol-2-yl)amino)-1-((1r,4S)-4-methylcyclohexyl)-2-oxoethyl)-1-(ethyl-d5)-1H-pyrazole-5-carboxamide] |  | 9 nM | AUC(0-t) ([3]; plasma): 14900 ng·h/mL; Cmax ([3]; plasma): 2170 ng/mL; Tmax ([3]; plasma): 1 h; half-life ([3]; plasma): 3 h
[2H]C([2H])([2H])C([2H])([2H])n1nccc1C(=O)NC(C(=O)Nc1ncc(C(CN2CC(C)OCC2C)N2CC(F)(F)CCC2=O)s1)C1CCC(C)CC1 [Example 864, N-((S)-2-((5-((R)-1-(5,5-difluoro-2-oxopiperidin-1-yl)-2-((2R,5S)-2,5-dimethylmorpholino)ethyl)thiazol-2-yl)amino)-1-((1r,4S)-4-methylcyclohexyl)-2-oxoethyl)-1-(ethyl-d5)-1H-pyrazole-5-carboxamide] |  |  | AUC(0-t) ([3]; in vivo): 15700 ng·h/mL; Cmax ([3]; in vivo): 1600 ng/mL; Tmax ([3]; in vivo): 4 h; half-life ([3]; in vivo): 3.7 h; IC50 ([2]; HT-29, 48 h): 3 nM
